Assay results: patent publication US20190119193A1, “COMPOSITION FOR REGULATING PLANT GROWTH, METHOD FOR TREATING PLANTS THEREWITH, AND ACTIVE INGREDIENT THEREOF” (Ivan Aleksandrovich Starikov, priority 2016, published 2019)

How the values were obtained:
[1] = Dilution of DMSO solution (10 g/L) in water; format: physicochemical; conditions: solution in DMSO (10 g/L) diluted in large quantities of water
[2] = tested on: spring wheat of “Zlata” variety; test: Field tests of GS-200 on wheat; format: in vivo
Procedure: After that GS-200 were dissolved in dimethyl sulfoxide to give solution of 10 g/L concentration, then water was added to give aqueous solutions of GS-200 with concentrations of 5.3·10^−7 M, 1.7·10^−8 M, 5.3·10^−9 M, 1.7·10^−10 M, 5.3·10^−11 M, 1.7·10^−12 M.
The field tests of the obtained aqueous solutions of GS-200 on spring wheat of “Zlata” variety were carried out. The tests were carried out in agroclimatic zone I, on the experimental field of the Moscow RIA «Nemchinovka» Agricultural technology center's Laboratory for the Development of Grain Protection Systems (Moscow region, Odintsovo district, Novoivanovskoe, 2017), according to the method adopted for registration tests of plant growth regulators: Methodology guidelines for approval tests of new fertilizers, bioregulators and plant regulators. Moscow-Vladimir, 2009, p. 104; State procedure of strain tests for agricultural crop. Corny, leguminous and forage cultures. Edition 1, M., 1985—p. 269, Edition 2, M., 1989—p. 194; State procedure of strain tests for agricultural crop. Corny, leguminous and forage cultures. Edition 1, M., 1985—p. 269, Edition 2, M., 1989—p. 194; All-Union Standard 10-108-87; All-Union State Standard 26212-91; All-Union State Standard 26207-91; All-Union Standard 10-108-87.
The soil of the testing ground is sod-podzolic on the covering silt. The depth of the topsoil is 27-30 centimeters, humus content is up to 2.2%, pHsalt is about 5.8-5.9, labile phosphorus index is 135-145 mg/kg, and exchange potassium index is 100-110 mg/kg.
Tests were conducted from Apr. 24 to Aug. 17, 2017. The weather conditions of the whole growing period were highly unfavorable (normal amount of precipitations was exceeded more than one and a half times; the temperature was much lower than long-term annual average), which is a strong stress factor.
Control test—without treatment with growth regulators.
Area of experimental plots—50 m^2, accounting area—40 m^2. Fourfold replication of the experiments.
Preceding crop was winter wheat. Immediately after the autumn harvesting of winter crops the area was treated with disc harrow to a depth of 10-12 cm. Then, fall plowing to a depth of 18-21 cm by a reverse plow and harrowing were carried out.
Before seeding the test crop, the soil was fertilized with nitrogen-phosphorus-potassium fertilizer in a dose of N64P64K64. Date of sowing: Apr. 24, 2017. Seeding rate: 5.5 million of germinated grains per 1 hectare.
Before seeding, all the seeds were treated with “Vincite Forte” fungicide with a consumption rate of 0.8 L per ton of seeds, as well as the aqueous solution of GS-200 selected for the experiment with a consumption rate of 10 L per ton of seeds (this aqueous solution was directly used as a liquid for treatment) or without a growth regulator, depending on the experiment. The following concentrations of the GS-200 solutions were used for treatment: 5.3·10^−7 M, 5.3·10^−9 M, […].
At the tillering phase (May 29-30) the crops were sprayed against weeds with “Linthur” herbicide at a dose of 175.0 g/ha. In the beginning of booting stage (June 12-13), in order to prevent blasts and leaf diseases, crops were sprayed with tank mixture of insecticide “BoreiNeo” in a dose 0.5 L/ha and fungicide “Alto Super” in a dose 0.5 L/ha. In the beginning of ear stage (June 28) crops on the testing ground were sprayed with tank mixture of fungicide “Rakurs” (against Septoria blight and Fusarium blight) in a dose 0.5 L/ha and a solution of GS-200 in a dose 300 L/ha. Spraying with aqueous solutions of GS-200 was carried out for all variants, where GS-200 were used for seed treatment. The concentration of the spraying solution was one-thirtieth of the concentration of the solution previously used for treatment of seeds: 1.7·10^−8 M, 1.7·10^−10 M and 1.7·10^−12 M respectively.
Harvesting of experimental plots was carried out on August 17, before harvesting test sheaves of 0.25 m^2 of each variant of the experiment were selected for structural analysis. […]

[3] = seeds treated 5.3 · 10^−7 M, sprayed 1.7·10^−8 M
[4] = seeds treated 5.3 · 10^−9 M, sprayed 1.7·10^−10 M
[5] = seeds treated 5.3 · 10^−11 M, sprayed 1.7·10^−12 M

COC(=O)C(=O)C(C)C(=O)OC (centres unmarked) [GS-171, Dimethyl 2-methyl-3-oxobutanedioate]
Appearance on dilution in water [1]: clear solution

COC(=O)C(=O)C(Cl)C(=O)OC (centres unmarked) [GS-172, Dimethyl 2-chloro-3-oxobutanedioate]
Appearance on dilution in water [1]: clear solution

CCOC(=O)C(=O)C(Sc1ccc(C)cc1)C(=O)OCC (centres unmarked) [GS-184, Diethyl 2-[(4-Methylphenyl)Sulfanyl]-3-Oxobutanedioate]
Appearance on dilution in water [1]: clear solution

CCOC(=O)CC(=O)C(=O)OCC [GS-195, Diethyl ester of oxaloacetic acid]
Appearance on dilution in water [1]: clear solution

CCOC(=O)CC(=O)C(=O)O [GS-197, 4-Ethoxy-2,4-dioxobutanoic acid]
Appearance on dilution in water [1]: clear solution

CCOC(=O)C(=O)C(C(=O)OCC)c1ccccc1 (centres unmarked) [GS-199, Diethyl 2-oxo-3-phenylbutanedioate]
Appearance on dilution in water [1]: clear solution

CCOC(=O)C(=O)CC(=O)N(C)C [GS-200, Ethyl 4-(dimethylamino)-2,4-dioxobutanoat]
Appearance on dilution in water [1]: clear solution | 1000 grains weight [2, 3]: 45.4 g | Gluten [2, 3]: 27.5 % dry basis | Main head length [2, 3]: 8.24 cm | Number of seeds from main head [2, 3]: 38.84 pcs | Number of spikelets in main head [2, 3]: 15.88 pcs | Number of stems [2, 3]: 450 pcs/m^2 | Number of yielding stems [2, 3]: 398 pcs/m^2 | Plant height [2, 3]: 121.1 cm | Productive tilling capacity [2, 3]: 1.46 | Protein (N 5.7) [2, 3]: 12.21 % dry basis | Starch [2, 3]: 58.40 % dry basis | Total tilling capacity [2, 3]: 1.65 | Weight of grains from main head [2, 3]: 1.89 g | Yield [2, 3]: 5.34 t/ha | Yield, % (comparing to control) [2, 3]: 124.8% | 1000 grains weight [2, 4]: 47.2 g | Gluten [2, 4]: 26.0 % dry basis | Main head length [2, 4]: 8.20 cm | Number of seeds from main head [2, 4]: 37.40 pcs | Number of spikelets in main head [2, 4]: 15.56 pcs | Number of stems [2, 4]: 462 pcs/m^2 | Number of yielding stems [2, 4]: 388 pcs/m^2 | Plant height [2, 4]: 118.5 cm | Productive tilling capacity [2, 4]: 1.53 | Protein (N 5.7) [2, 4]: 11.56 % dry basis | Starch [2, 4]: 58.66 % dry basis | Total tilling capacity [2, 4]: 1.82 | Weight of grains from main head [2, 4]: 1.90 g | Yield [2, 4]: 5.37 t/ha | Yield, % (comparing to control) [2, 4]: 125.5% | 1000 grains weight [2, 5]: 44.1 g | Gluten [2, 5]: 26.6 % dry basis | Main head length [2, 5]: 7.56 cm | Number of seeds from main head [2, 5]: 34.28 pcs | Number of spikelets in main head [2, 5]: 15.56 pcs | Number of stems [2, 5]: 398 pcs/m^2 | Number of yielding stems [2, 5]: 360 pcs/m^2 | Plant height [2, 5]: 118.7 cm | Productive tilling capacity [2, 5]: 1.71 | Protein (N 5.7) [2, 5]: 11.82 % dry basis | Starch [2, 5]: 59.05 % dry basis | Total tilling capacity [2, 5]: 1.90 | Weight of grains from main head [2, 5]: 1.60 g | Yield [2, 5]: 4.65 t/ha | Yield, % (comparing to control) [2, 5]: 108.6%

CCOC(=O)C(=O)CC(=O)N(CC)CC [GS-202, Ethyl 4-(diethylamino)-2,4-dioxobutanoat]
Appearance on dilution in water [1]: clear solution

CCN(CC)C(=O)CC(=O)C(N)=O [GS-203, N^4,N^4-Diethyl-2-oxobutanediamide]
Appearance on dilution in water [1]: clear solution

CN(C)C(=O)C(=O)CC(=O)N(C)CCO [GS-214, N^4-(2-hydroxyethyl)-N^1,N^1,N^4-trimethyl-2-oxobutanediamide]
Appearance on dilution in water [1]: clear solution

CCOC(=O)C(=O)CC(C)=O [GS-300, Ethyl 2,4-dioxovalerate]
Appearance on dilution in water [1]: clear solution

CCOC(=O)C(=O)CC(=O)c1ccccc1 [GS-310, Ethyl 2,4-dioxo-4-phenylbutanoate]
Appearance on dilution in water [1]: clear solution

CCOC(=O)C(=O)CC(=O)c1c[nH]c2ccccc12 [GS-312, Ethyl 4-(1H-indol-3-yl)-2,4-dioxobutanoate]
Appearance on dilution in water [1]: bright yellow fluorescent suspension

COC(=O)C1CNC(=O)C1=O (centres unmarked) [GS-500, Methyl 4,5-dioxopyrrolidine-3-carboxylate]
Appearance on dilution in water [1]: clear solution
